According to patent publication US20030013770A1, “Aminobenzophenones as inhibitors of il 1b and tnf” (priority 2001, published 2003):

What was measured:
Assay type in all cases: cell-based
TNF-α = experiment: Inhibition of TNF-α secretion in LPS stimulated peripheral blood mononuclear cells; conditions: PBMC; LPS stimulated human peripheral blood mononuclear cells; 18 hours; ELISA of medium; read-out: The median inhibition concentration (IC50, nM) of TNF-α
Procedure: (§1) To study the effect of the compound of the present invention in vitro the inhibition of the IL-1β and TNF-α secretion was measured using the following procedure:
(§2) Cytokine production was measured in the media from lipopolysaccharide (LPS) stimulated peripheral blood mononuclear cells. The mononuclear cells were isolated from human peripheral blood by Lymphoprep® (Nycomed, Norway) fractionation and suspended in RPMI 1640 (growth medium) with foetal calf serum (FCS, 2%), at a concentration of 5×10^5 cells/ml. The cells were incubated in 24-well tissue culture plates in 1 ml aliquots. Test compounds were dissolved in dimethylsulfoxide (DMSO, 10 mM) and were diluted with the medium. Compounds were added to the cells for 30 minutes, then LPS ([…] final concentration) was added. The plates were incubated for 18 hours, and the concentration of IL-1β and TNF-α in the medium was determined by enzyme-linked immunosorbent assays. The median inhibitory concentrations (IC50) of the compounds were calculated.

PMN-superoxide = experiment: Inhibition of PMN (polymorphonuclear) superoxide secretion; conditions: human PMN granulocytes primed with TNF-α, stimulated with fMLP; reduction of ferricytochrome C; read-out: The median inhibition concentration (IC50, nM) of PMN-superoxide
Procedure: The compounds of the present invention also show similar activities in the ability to inhibit PMN (polymorphonuclear) superoxide secretion which is also indicative of potentially useful anti-inflammatory drugs. The compounds were tested using the following procedure:
Human polymorphonuclear (PMN) granulocytes were isolated from human blood by dextran sedimentation, Lymphoprep® fractionation and hypotonic lysis of contaminating erythrocytes. Superoxide anion generation was measured as the superoxide dismutase inhibitable reduction of ferricytochrome C (Madhu, S. B. et al, Inflammation, 16, 241, (1992)). The cells were suspended in Hanks' balanced salt solution, and incubated for 10 minutes at 37° C. with test compounds. The cells were primed by the addition of TNF-α (3 ng/ml final concentration) for 10 minutes, and then ferricytochrome C, (final concentration 750 μg/ml), bovine serum albumin (BSA, final concentration 1 mg/ml) and formyl-methionyl-leucyl-phenylalanine (fMLP, final concentration 10^−7 M) were added for 3 minutes. The cells were chilled on ice, and were spun down. The optical densities in the cell-free supernatant was measured in a spectrophotometer. The median inhibitory concentration (IC50) of the compounds was calculated.

IL-1β = experiment: Inhibition of IL-1β secretion in LPS stimulated peripheral blood mononuclear cells; conditions: PBMC; LPS stimulated human peripheral blood mononuclear cells; 18 hours; ELISA of medium; read-out: The median inhibition concentration (IC50, nM) of IL-1β
Procedure: as §1, §2

IC50 (TNF-α) [nM] | IC50 (PMN-superoxide) [nM] | IC50 (IL-1β) [nM] | Structure (SMILES)
8 | 100 | 100 | Cc1cc(Br)ccc1Nc1ccc(C(=O)c2ccccc2C)c(Cl)c1 [Compound 136, 4-(4-Bromo-2-methyl-phenylamino)-2-chloro-2′-methylbenzophenone]
7.9 | 3.7 | 32 | Cc1cc(F)ccc1Nc1ccc(C(=O)c2ccccc2C)c(Cl)c1 [Compound 116, 2-Chloro-4-(4-fluoro-2-methyl-phenylamino)-2′-methylbenzophenone]
6.3 | 50 | 40 | Cc1ccc(F)cc1Nc1ccc(C(=O)c2ccccc2C)c(Cl)c1 [Compound 130, 2-Chloro-4-(5-fluoro-2-methyl-phenylamino)-2′-methylbenzophenone]
4 | 13 | 13 | Cc1ccccc1C(=O)c1ccc(Nc2cccc(F)c2C)cc1Cl [Compound 131, 2-Chloro-4-(3-fluoro-2-methyl-phenylamino)-2′-methylbenzophenone]
7.9 | 20 | 50 | Cc1ccccc1C(=O)c1ccc(Nc2cccc(Cl)c2)cc1Cl [Compound 109, 2-Chloro-4-(3-chloro-phenylamino)-2′-methylbenzophenone]
4 | 6.3 | 13 | Cc1ccccc1Nc1ccc(C(=O)c2ccccc2C)c(Cl)c1 [Compound 102, 2-Chloro-2′-methyl-4-(2-methyl-phenylamino)benzophenone]
7.1 | 5 | 13 | Cc1ccccc1C(=O)c1ccc(Nc2ccccc2N)cc1Cl [ref. A), 4-(2-Aminophenylamino)-2-chloro-2′-methylbenzophenone, reference compound]
4 | 13 | 25 | Cc1ccccc1C(=O)c1ccc(Nc2ccccc2F)cc1Cl [Compound 105, 2-Chloro-4-(2-fluoro-phenylamino)-2′-methylbenzophenone]
16 | 5 | 40 | Cc1ccccc1C(=O)c1ccc(Nc2ccc(Cl)cc2)cc1Cl [Compound 119, 2-Chloro-4-(4-chloro-phenylamino)-2′-methylbenzophenone]
